Values joined by “and” are separate entries in the source; they are usually repeats but may differ in a detail not shown here. Identical values can stand only once.
How the values were obtained:
[1] = system: hepatic steatosis induced by MCD diet; test: Histological examination (H&E stain) of liver of MCD diet mice; assay type: in vivo, Male C57BL/6 mice; settings: for effect on MCD diet-induced steatohepatitis (H&E staining), in words / Steatosis / Ballooning / Fibrosis / Inflammation / Scores: MCD diet mice; for effect on MCD diet-induced steatohepatitis (H&E staining), in words / Avg / Ballooning / Fibrosis / Inflammation / Sum / Scores: 100 mg/kg oral; for Avg: average of Scores of the group; for Avg / Ballooning / Fibrosis / Inflammation / Sum / Scores: PG/TPSG (1:1); for Steatosis / Ballooning / Fibrosis / Inflammation: score per animal; for Steatosis: 100 mg/kg oral once daily, 5 times a week, in PG/TPSG (1:1); for Sum: sum of Scores of the 4 animals of the group; for Scores: total score per animal
Procedure: (§1) Animals and experimental protocol: Male C57BL/6 mice, 4 weeks of age, were purchased from Laboratory Animal Center (Taiwan, China) were maintained under the procedures and guidelines provided by the Institutional Animal Care and Use Committee of the Health Research Institutes (Taiwan, China). They were maintained with free access to pellet food and water in stainless-steel cages at a temperature of 21±2° C. with a 12 h light/dark cycle.
(§2) Mice were randomly divided into five groups and treated as follows: (1) MCD diet+PG/TPSG (2) MCD diet+100 mg/kg all compounds. After 28 days, animals were sacrificed for the collection of blood for determination of plasma ALT and AST concentrations, and liver samples for H&E stain.
(§3) After 28 days, animals were sacrificed for the collection of blood for determination of plasma ALT and AST concentrations, and liver samples for H&E stain.

[2] = system: MCD diet NASH mice; test: Serum AST and ALT of compounds treated-NASH mice (MCD diet); assay type: in vivo, Male C57BL/6 mice; settings: MCD diet mice; for Serum ALT (U/L) / Serum AST (U/L): 100 mg/kg oral, PG/TPSG (1:1); for effect on serum concentrations of AST and ALT, in words: 100 mg/kg oral (Table 2)
Procedure: as §1, §2, §3

SMILES | effect on MCD diet-induced steatohepatitis (H&E staining), in words [1] | Avg [1] | Steatosis ([1]; hydrochloride, 100 mg/kg) | Ballooning [1] | Fibrosis [1] | Inflammation [1] | Sum [1] | Scores ([1]; hydrochloride, 100 mg/kg) | Serum ALT (U/L) [2] [U/L] | Serum AST (U/L) [2] [U/L] | Steatosis [1] | Inflammation ([1]; hydrochloride, 100 mg/kg) | effect on serum concentrations of AST and ALT, in words [2] | Ballooning ([1]; hydrochloride, 100 mg/kg) | Scores [1]
COc1cc(/C=C/c2ccc(OC(=O)OCCNC(=O)C(N)C(C)C)c(OC)c2)cc(OC)c1.Cl (stereo not shown) [Compound 6g, (E)-2-(2-amino-3-methylbutanamido)ethyl (4-(3,5-dimethoxystyryl)-2-methoxyphenyl) carbonate hydrochloride] | prevented MCD diet-induced steatohepatitis | 7.75 | 3 (3×) and 2 | 2 | 0 | 3 | 31 | 8 (3×) and 7 | 260.75 | 455.25 |  |  |  |  | 
COc1cc(/C=C/c2ccc(OC(=O)NCCNC(=O)C(N)C(C)C)cc2)cc(OC)c1.Cl (stereo not shown) [Compound 7c, (E)-4-(3,5-dimethoxystyryl)phenyl (2-(2-amino-3-methylbutanamido)ethyl) carbamate hydrochloride] | prevented MCD diet-induced steatohepatitis | 7.75 | 3 (3×) and 2 | 2 | 0 | 3 | 31 | 8 (3×) and 7 | 252.13 | 435.25 |  |  |  |  | 
COc1cc(/C=C/c2ccc(OC(=O)OCCNC(=O)C3CCCN3)cc2)cc(OC)c1.Cl (stereo not shown) [Compound 5t, (E)-4-(3,5-dimethoxystyryl)phenyl (2-(pyrrolidine-2-carboxamido)ethyl) carbonate hydrochloride] | prevented MCD diet-induced steatohepatitis | 7.75 | 3 (3×) and 2 | 2 | 0 | 3 | 31 | 8 (3×) and 7 | 263.00 | 370.25 |  |  |  |  | 
CCC(C)C(N)C(=O)NCCOC(=O)Oc1ccc(/C=C/c2cc(OC)cc(OC)c2)cc1.Cl (stereo not shown) [Compound 5e, (E)-2-(2-amino-3-methylpentanamido)ethyl (4-(3,5-dimethoxystyryl)phenyl) carbonate hydrochloride] | prevented MCD diet-induced steatohepatitis | 7.75 |  | 2 | 0 |  | 31 | 8 (3×) and 7 | 209.62 | 419.25 | 3 | 3 (3×) and 2 |  |  | 
COc1cc(/C=C/c2ccc(OC(=O)OCCNC(=O)C(N)CC(C)C)cc2)cc(OC)c1.Cl (stereo not shown) [Compound 5d, (E)-2-(2-amino-4-methylpentanamido)ethyl (4-(3,5-dimethoxystyryl)phenyl) carbonate hydrochloride] | prevented MCD diet-induced steatohepatitis | 7.75 | 3 (3×) and 2 | 2 | 0 | 3 | 31 | 8 (3×) and 7 | 196.13 | 392.25 |  |  | significantly inhibited the serum concentrations of AST and ALT |  | 
COc1cc(/C=C/c2ccc(OC(=O)OCCNC(=O)C(C)N)cc2)cc(OC)c1.Cl (stereo not shown) [Compound 5b, (E)-2-(2-aminopropanamido)ethyl (4-(3,5-dimethoxystyryl)phenyl) carbonate hydrochloride] | prevented MCD diet-induced steatohepatitis | 4.5 | 2 (3×) and 3 |  | 0 |  | 19 | 5 and 4 (2×) and 6 | 180.88 | 235.25 |  | 2 and 1 (3×) | significantly inhibited the serum concentrations of AST and ALT | 1 (3×) and 2 | 
COc1cc(/C=C/c2ccc(OC(=O)NCCNC(=O)C(N)Cc3ccccc3)cc2)cc(OC)c1.Cl (stereo not shown) [Compound 7e, (E)-4-(3,5-dimethoxystyryl)phenyl (2-(2-amino-3-phenylpropanamido)ethyl) carbamate hydrochloride] | prevented MCD diet-induced steatohepatitis | 7.75 |  | 2 | 0 |  | 31 | 8 (3×) and 7 | 286.75 | 477.00 | 3 | 3 (3×) and 2 |  |  | 
COc1cc(/C=C/c2ccc(OC(=O)OCCNC(=O)C(N)Cc3ccccc3)cc2)cc(OC)c1.Cl (stereo not shown) [Compound 5j, (E)-2-(2-amino-3-phenylpropanamido)ethyl (4-(3,5-dimethoxystyryl)phenyl) carbonate hydrochloride] | prevented MCD diet-induced steatohepatitis | 7.75 | 3 (3×) and 2 | 2 | 0 | 3 | 31 | 8 (3×) and 7 | 299.00 | 598.00 |  |  |  |  | 
COc1cc(/C=C/c2ccc(OC(=O)OCCNC(=O)C(N)CCSC)cc2)cc(OC)c1.Cl (stereo not shown) [Compound 5f, (E)-2-(2-amino-4-(methylthio)butanamido)ethyl (4-(3,5-dimethoxystyryl)phenyl) carbonate hydrochloride] | prevented MCD diet-induced steatohepatitis | 6.25 |  |  | 0 |  | 25 |  | 153.00 | 241.75 | 2 | 2 (3×) and 1 | significantly inhibited the serum concentrations of AST and ALT | 1 (3×) and 2 | 5
COc1cc(/C=C/c2ccc(OC(=O)OCCNC(=O)C(N)CO)cc2)cc(OC)c1.Cl (stereo not shown) [Compound 5g, (E)-2-(2-amino-3-hydroxypropanamido)ethyl (4-(3,5-dimethoxystyryl)phenyl) carbonate hydrochloride] | prevented MCD diet-induced steatohepatitis | 6.5 | 3 (2×) and 2 (2×) |  | 0 |  | 26 | 8 (2×) and 5 (2×) | 222.13 | 444.25 |  | 3 (2×) and 2 (2×) |  | 2 (2×) and 1 (2×) | 
COc1cc(/C=C/c2ccc(OC(=O)OCCNC(=O)C(N)CC(N)=O)cc2)cc(OC)c1.Cl (stereo not shown) [Compound 5p, (E)-2-(2,4-diamino-4-oxobutanamido)ethyl (4-(3,5-dimethoxystyryl)phenyl) carbonate hydrochloride] | prevented MCD diet-induced steatohepatitis | 7.75 | 3 (3×) and 2 | 2 | 0 | 3 | 31 | 8 (3×) and 7 | 288.50 | 327.00 |  |  | significantly inhibited the serum concentrations of AST and ALT |  | 
COc1cc(/C=C/c2ccc(OC(=O)OCCNC(=O)C(N)C(C)O)cc2)cc(OC)c1.Cl (stereo not shown) [Compound 5h, (E)-2-(2-amino-3-hydroxybutanamido)ethyl (4-(3,5-dimethoxystyryl)phenyl) carbonate hydrochloride] |  | 8 |  | 2 | 0 | 3 | 32 |  | 150.75 | 301.50 | 3 |  | significantly inhibited the serum concentrations of AST and ALT |  | 8

From patent US12466784B2, “Analogs of pterostilbene amino acid bearing carbonates for treating a non-alcoholic fatty liver disease and nonalcoholic steatohepatitis” (APICAL MOLECULAR BIOTECH CO., LTD., priority 2020, dated 2025)
